# Test results as given in patent US11345659B2, “Pipecolic esters for inhibition of the proteasome” (THE BOARD OF REGENTS OF THE UNIVERSY OF TEXAS SYSTEM, priority 2018, dated 2022).
# Molecular target: T1, 20 S proteasome (Homo sapiens, UniProt P25787+P25789)
# T1 construct: purified from erythrocytes; purchased Enzo Life Sciences, Inc. (Farmingdale, N.Y.); host or cells: human erythrocytes
# Test: PGPH peptidase activity of tRpt5-activated 20 S core
# Format: biochemical
# Settings: core activated with tRpt5
# Procedure: Human housekeeping 20 S and 26 S and complexes purified from erythrocytes were purchased from Enzo Life Sciences, Inc. (Farmingdale, N.Y.). The 1 mg/ml stock 20 S proteasome was diluted to 0.2 mg/ml working solution in 50 mM Tris/HCl, pH 8 containing 20% glycerol (dilution buffer). For the 26 S proteasome stock, the dilution buffer was supplemented with 2 mM ATP, 1 mM MgCl2, and 1 mM DTT (dithiothreitol). […] of fluorescence emitted by 7-amino-4-methylcoumarin ([…]; Bachem Bioscience Inc., Philadelphia, Pa.), used at concentration of 100 μM. Free AMC (Sigma-Aldrich, St. Louis, Mo.) was used as the standard. The Rpt5 C-terminal peptide was synthesized (standard solid-phase peptide chemistry) and purified to at least 98% purity by GenScript (Piscataway, N.J.). The Rpt5 peptide and the peptide substrate were dissolved in dimethylsulfoxide (DMSO) and such stock solutions were stored at −20° C. […]
# The reaction was carried out in 96-well plates, in 100 μL of reaction mixture, for 1 hour at 37° C. […] The reaction rates were calculated from a linear segment of kinetic curves constructed from measurements in 1-minutes intervals (Fluoroskan Ascent plate reader; Thermo Fisher Scientific Inc., Waltham, Mass.). Reaction rates were calculated using a linear fit executed by Slope Analyzer and Enzyme Kinetics applications launched within Origin Pro 2017 (OriginLab). […]
compound,measurement,value
"COc1cc(CCCOC(=O)[C@@H]2CCCCN2C(=O)OCc2ccccc2)cc(OC)c1OC [Compound 3, 1-benzyl 2-(3-(3,4,5-trimethoxyphenyl)propyl) (S)-piperidine-1,2-dicarboxylate]",IC50,2600 nM
